Results taken from patent US10711007B2, “Selective inhibitors of protein arginine methyltransferase 5 (PRMT5)” (Prelude Therapeutics, Incorporated, priority 2018, dated 2020).

Tests used:
[1] = tested on: γ-globin expression in erythroid progenitors; test: γ-globin induction by quantitative PCR in human erythroid progenitor cells; format: cell-based; settings: 9 days of treatment, N=1
Method: Compounds were dissolved in DMSO to make 10 mM stock solutions, and further diluted to make 1 mM and 0.1 mM stocks.
Human erythroid progenitor cells were generated from purified CD34+ cells from mobilized peripheral blood purchased from AllCells. CD34+ cells were cultured in StemSpan SFEM II (StemCell Technologies, Catalog #09605) supplemented with 100 ng/ml FLT3 ligand (R&D systems, Catalog #308-FK), 100 ng/ml SCF (R&D systems, Catalog #255-SC), 20 ng/ml IL-3 (R&D systems, Catalog #203-IL), 20 ng/ml IL-6 (R&D systems, Catalog #206-IL) for 6 days, then reseeded into the same medium supplemented with 20 ng/ml SCF, 5 ng/ml IL-3, 1 U/ml EPO (R&D systems, Catalog #287-TC), 2 μM dexamethasone (Sigma-Aldrich, Catalog # D4902), 1 μM β-estradiol (Sigma-Aldrich, Catalog # E2758). Cells were treated with 0.1 and 1 μM compound from Day 8 of differentiation. Media and compound were renewed every 3 days and cells were collected for RNA isolation after 9 days of treatment.
Assessment of γ-Globin Induction by Quantitative PCR
RNA was isolated using Quick-RNA Microprep kit (Zymo Research, Catalog # Z1050), cDNA was synthesized using qScript cDNA SuperMix (Quantabio, Catalog #95048). Quantitative PCR for y-globin was performed using PerfeCTa SYBR Green FastMix (Quantabio, Catalog #95071) on Bio-Rad CFX Connect Real-Time PCR Detection System. […]

[2] = tested on: sDMA (SmD3me2s) in human PBMCs; test: Western blotting for sDMA in PHA-L activated human PBMCs; format: cell-based; settings: PBMC, 72 h, 3 days
Method: Compound Titration and Cell Culture:
Compounds were dissolved in DMSO to make 10 mM stock solutions. Human peripheral blood mononuclear cells (PBMCs) from healthy donors were purchased from AllCells (Emeryville, Calif.), maintained in RPMI 1640 (Corning Cellgro, Catalog #: 10-040-CV) supplemented with 10% v/v heat-inactivated FBS (GE Healthcare, Catalog #: SH30910.03), 2 mM L-Glutamine (Corning Cellgro, Catalog #25005CV) and 1× Penicillin-Streptomycin (Sigma-Aldrich, Catalog # P4333) in a CO2 incubator (5% CO2) at 37° C.
To Determine Enzyme Inhibition IC50 Values in Human PBMCs:
Freshly thawed cells were seeded at a density of 25×10^5 cells/ml in 2 ml of media in a 12 well plate. Cells were activated by addition of 5 μg/ml PHA-L (Sigma-Aldrich, Catalog # L4144) for 3 days. A series of 8-point, 3-fold dilutions of compound were dispensed into wells from 1 mM stock solution using TECAN digital dispenser (D300e) and concentration of DMSO was normalized to 0.1%. […]
Cells were harvested 3 days later, resuspended in 15 μL PBS, lysed in 4% SDS, and homogenized by passing through homogenizer column (Omega Biotek, Catalog #: HCR003). Total protein concentration were determined by BCA assay (ThermoFisher Scientific, Catalog #: 23225). […] SmD3me2s bands were quantified by ImageJ. […] IC50 values were calculated using Graphpad Prism ([Inhibitor] vs. normalized response-Variable slope).

Nc1ncnc2c1ccn2[C@@H]1O[C@H]([C@@H]2OCc3ccc(Cl)cc32)[C@@H](O)[C@H]1O [Example 5, (2R,3R,4S,5S)-2-(4-amino-7H-pyrrolo[2,3-d]pyrimidin-7-yl)-5-((R)-6-chloro-1,3-dihydroisobenzofuran-1-yl)tetrahydrofuran-3,4-diol]
increase in expression of γ-globin ([1]; 0.1 μM): 1.5 fold | increase in expression of γ-globin ([1]; 1 μM): 2 fold | IC50 [2]: 16 nM
